# Experimental data: US8962659B2, “Phenoxyethyl piperidine compounds” (Eli Lilly and Company, priority 2012, dated 2015)
# Where a name gives a salt, the structure may show the parent alone.
# Assays:
# rat EP4 = rat EP4 (Rattus norvegicus (Rat), UniProt P43114); assay: In vitro rat EP4 functional antagonist activity (PGE2-stimulated cAMP, HTRF, HEK293); assay type: cell-based; conditions: inhibition of PGE2 (EC80)-stimulated cAMP, read-out: IC50 measured at rat EP4
# Procedure: Rat EP4 cDNA (Genebank Accession# NM—03276) is cloned into pcDNA 3.1 vector and subsequently transfected in HEK293 cells for receptor expression. Rat EP4 stable clone is scaled up and then frozen down as cell bank for future compounds screening. To test EP4 antagonist compounds in rEP4 cells, thaw the frozen cells and then resuspend cells in cAMP assay buffer. […] The cells are plated into 96-well half area flat-bottom polystyrene black plates (Costar 3694). […] Then diluted compounds are added into cAMP assay buffer which contains PGE2 (Cayman 14010, in a concentration predetermined to produce an EC80) at ratio of DMSO/buffer at 1/100. The cells are treated with compounds in the presence of PGE2 (EC80 concentration) for 30 minutes at room temperature. The cAMP levels generated from the cells are quantified by a cAMP HTRF assay kit (Cisbio 62AM4PEC). The plates are read on an EnVision plate reader using HTRF optimized protocol (PerkinElmer). IC50s are calculated using Graphpad Prism (v. 4) nonlinear regression, sigmoidal dose response curve fitting.
# human EP1 = human EP1 (Homo sapiens (Human), UniProt P34995); assay: In vitro binding to human EP1 ([3H]-PGE2 displacement, membranes); conditions: [3H]-PGE2, HEK293 membranes; read-out: hEP1, Ki
# human EP1, sequence (P34995 whole entry, canonical isoform): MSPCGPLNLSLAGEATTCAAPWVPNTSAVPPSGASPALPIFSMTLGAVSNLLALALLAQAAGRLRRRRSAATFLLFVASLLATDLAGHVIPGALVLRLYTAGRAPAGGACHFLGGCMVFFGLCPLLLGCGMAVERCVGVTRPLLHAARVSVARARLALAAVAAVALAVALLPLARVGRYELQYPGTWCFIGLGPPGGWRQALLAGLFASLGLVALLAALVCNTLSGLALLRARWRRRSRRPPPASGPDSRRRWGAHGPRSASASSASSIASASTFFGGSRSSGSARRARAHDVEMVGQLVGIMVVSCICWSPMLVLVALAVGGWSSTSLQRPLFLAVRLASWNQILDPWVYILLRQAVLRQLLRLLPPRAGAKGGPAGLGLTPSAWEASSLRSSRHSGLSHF
# Procedure: (§1) hEP1 and hEP4 membranes are prepared from recombinant HEK293 cells stably expressing the human EP1 (Genbank accession number AY275470) or EP4 (Genbank accession number AY429109) receptors. hEP2 and hEP3 membranes are prepared from HEK293 cells transiently transfected with EP2 (Genbank accession number AY275471) or EP3 (isoform VI: Genbank accession number AY429108) receptor plasmids. Frozen cell pellets are homogenized in homogenization buffer using a Teflon/glass homogenizer. Membrane protein is aliquoted and quick frozen on dry ice prior to storage at -80° C. Homogenization buffer contained 10 mM Tris-HCl, pH 7.4, 250 mM sucrose, 1 mM EDTA, 0.3 mM indomethacin and plus CompleteTM, with EDTA, obtained from Roche Molecular Biochemicals (Catalog Number 1 697 498). Kd values for [3H]-PGE2 binding to each receptor are determined by saturation binding studies or homologous competition. […] Nonspecific binding is calculated by comparing binding in the presence and absence of 2 μM of PGE2. The membranes are harvested by filtration (TomTek harvester), washed 4 times with cold buffer (10 mM MES pH 6.0 with KOH, 10 mM MgCl2), dried in a 60° C. oven, and the radioactivity is quantified as counts per minute (CPM) using a TopCount detector. Percent specific binding is calculated as the percent of the binding in the absence of any inhibitor, corrected for binding in the presence of 2 μM of PGE2.
# human EP2 = human EP2 (Homo sapiens (Human), UniProt P43116); assay: In vitro binding to human EP2 ([3H]-PGE2 displacement, membranes); conditions: [3H]-PGE2, HEK293 membranes; n = 3; read-out: hEP2, Ki
# human EP2, sequence (P43116 whole entry): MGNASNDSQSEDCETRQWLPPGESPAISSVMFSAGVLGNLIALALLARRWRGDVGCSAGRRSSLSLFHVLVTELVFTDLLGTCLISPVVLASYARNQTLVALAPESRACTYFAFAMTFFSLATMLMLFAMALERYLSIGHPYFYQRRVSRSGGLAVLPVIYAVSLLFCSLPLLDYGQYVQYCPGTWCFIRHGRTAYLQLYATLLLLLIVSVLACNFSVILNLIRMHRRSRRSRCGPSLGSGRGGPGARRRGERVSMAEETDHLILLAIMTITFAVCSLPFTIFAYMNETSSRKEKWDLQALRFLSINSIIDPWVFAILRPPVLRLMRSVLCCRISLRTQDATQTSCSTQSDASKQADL
# Procedure: as §1
# human EP3 (isoform VI) = human EP3 (isoform VI) (Homo sapiens (Human), UniProt P43115); assay: In vitro binding to human EP3 ([3H]-PGE2 displacement, membranes); conditions: [3H]-PGE2, HEK293 membranes; read-out: hEP3, Ki
# human EP3 (isoform VI), sequence (P43115 other isoform, or with tags, fused parts or gaps isoform P43115-4): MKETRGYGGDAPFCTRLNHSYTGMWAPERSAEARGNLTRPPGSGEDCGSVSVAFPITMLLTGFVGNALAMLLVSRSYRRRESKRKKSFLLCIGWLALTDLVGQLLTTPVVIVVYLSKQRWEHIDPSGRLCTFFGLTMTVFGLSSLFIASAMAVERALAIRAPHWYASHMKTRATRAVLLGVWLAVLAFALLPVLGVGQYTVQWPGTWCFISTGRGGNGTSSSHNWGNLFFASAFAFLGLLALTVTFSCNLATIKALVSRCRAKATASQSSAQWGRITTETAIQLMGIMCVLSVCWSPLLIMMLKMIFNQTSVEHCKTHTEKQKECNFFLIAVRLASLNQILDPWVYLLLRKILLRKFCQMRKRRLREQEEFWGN
# Procedure: as §1
# rat EP4, sequence (P43114 whole entry): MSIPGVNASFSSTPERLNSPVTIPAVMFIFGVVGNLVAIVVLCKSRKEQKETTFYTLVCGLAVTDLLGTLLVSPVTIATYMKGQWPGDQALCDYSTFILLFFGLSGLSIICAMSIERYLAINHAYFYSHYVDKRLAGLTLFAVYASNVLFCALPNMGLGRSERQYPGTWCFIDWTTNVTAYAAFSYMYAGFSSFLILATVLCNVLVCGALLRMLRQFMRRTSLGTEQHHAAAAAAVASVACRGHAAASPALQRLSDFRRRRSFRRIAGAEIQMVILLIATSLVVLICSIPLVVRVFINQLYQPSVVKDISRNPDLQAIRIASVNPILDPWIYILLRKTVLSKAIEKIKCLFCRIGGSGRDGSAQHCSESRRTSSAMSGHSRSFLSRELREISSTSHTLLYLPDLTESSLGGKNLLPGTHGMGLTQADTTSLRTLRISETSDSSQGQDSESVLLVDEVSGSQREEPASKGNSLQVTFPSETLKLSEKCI
smiles,measurement,setting,value
"C[C@H](NC(=O)[C@H]1CCCCN1CCOc1ccccc1)c1ccc(C(=O)O)cc1 [Example 1, 4-[(1S)-1-[[(2R)-1-(2-phenoxyethyl)piperidine-2-carbonyl]amino]ethyl]benzoic acid hydrochloride]",IC50,rat EP4,15 nM
same,Ki,human EP1,> 17.5 µM
same,Ki,human EP2,1550 ± 1860 nM
same,Ki,human EP3 (isoform VI),> 14 µM
